{
  "source": "patent US6664290B1",
  "about": "“Oral or vaginal administration of mesoprostol in third stage labor” (University College London, priority 1994, dated 2003)",
  "key": {"[1]": {"conditions": "cited from earlier work; for Time of peak plasma levels: oral, substantially the same if administered vaginally"}, "[2]": {"tested_on": "women in the third stage of labour", "format": "in vivo", "text": "The study protocol was reviewed and approved by the local Ethics Committee. Information sheets explaining the aims of the trial were distributed to potential participants either in the antenatal classes, antenatal clinics, and the Day Assessment Area. On admission to labour ward women were reminded about the trial and a written informed consent was obtained if they still wished to participate in the study.\nThe main objective of this study was to estimate the incidence of primary postpartum haemorrhage (PPH). This was defined as estimated blood loss of or more than 500 ml. Other measures of blood loss were also considered e.g. severe PPH i.e. >1000 ml; secondary PPH (after 24 hours); need for blood transfusion; use of therapeutic oxytocics (i.e. the need for extra oxytocics); length of third stage; incidence of manual removal of placenta; the need for subsequent evacuation of the retained products of conception; and the change in haemoglobin and packed cell volume in those who had instrumental delivery and/or who had blood loss of 500 ml or more compared to the Haemoglobin done late in pregnancy. Potential adverse effects of the drug used were also recorded e.g. incidence of vomiting, diarrhoea, shivering and hypertension (defined as diastolic blood pressure >100 or Systolic Blood pressure >150). All of these measures were documented by the midwife on call on a specially designed form with demographic information and information related to the type and circumstances of delivery.\nThe principle criteria for exclusion were: placenta praevia, multiple pregnancy, intrauterine death, gestational age less than 32 weeks gestation, women with previous PPH and women in their sixth pregnancy or more. In this pilot study, women with hypertension, preeclampsia or pregnancy induced hypertension were also excluded.\nSyntometrine was not given but midwives were instructed to do so if they felt there was a clinical indication. Otherwise the delivery of the placenta was managed according to hospital policy (active management policy). Blood loss was estimated clinically by the attendant midwife or obstetrician. A sample of venous blood was obtained two days later after birth for haemoglobin and packed cell volume assessment from women who had instrumental delivery or from those who had blood loss of 500 ml or more. A record was kept of the last recorded blood pressure and temperature before birth and one hour after delivery.\nCategorical variables are summarised as numbers and percentages, whereas continuous variables that are normally distributed are presented as means and standard deviations (SD), continuous variables that are not normally distributed are presented as medians and interquartile ranges (IQR). Comparisons between the systolic, diastolic blood pressure, haemoglobin, haematocrit and temperature before and after delivery were conducted via the paired t-test. Association between two categorical variables was assessed via Chi-square testing. The significance level was set to the 5% level."}, "blood pressure [3]": {"tested_on": "blood pressure", "assay": "Blood pressure effect of Misoprostol in humans", "format": "in vivo, human", "conditions": "administered to humans; dosages up to 800 μg"}, "blood pressure [4]": {"tested_on": "blood pressure", "conditions": "patients; about 400 μg; cited from earlier work"}, "blood pressure [5]": {"tested_on": "blood pressure", "conditions": "animal studies; about 800 μg in a single dose; cited from earlier work"}, "[6]": {"tested_on": "uterus (uterotonic contraction)", "conditions": "intramuscular route, as part of Syntometrine; cited from earlier work"}, "[7]": {"conditions": "after delivery (one hour), 600 μg oral, n = 184"}, "[8]": {"conditions": "after minus before delivery, n = 184"}, "[9]": {"conditions": "before delivery (last recorded, before drug), n = 184"}, "[10]": {"conditions": "one hour after delivery vs last measured before delivery, not statistically significant"}},
  "note": "Where two headings read alike, the source gives them in different places.",
  "data": [
    {"smiles": "CCCCC(C)(O)C/C=C/[C@H]1[C@H](O)CC(=O)[C@@H]1CCCCCCC(=O)O", "note": "(mixture of isomers) [Misoprostol acid]", "values": [
      {"measurement": "Time of peak plasma levels", "setting": "[1]", "value": "less than fifteen"}
    ]},
    {"smiles": "CCCCC(C)(O)C/C=C/[C@H]1[C@H](O)CC(=O)[C@@H]1CCCCCCC(=O)OC", "note": "(mixture of isomers) [Misoprostol]", "values": [
      {"measurement": "Unchanged drug in the plasma or urine after use", "setting": "[1]; extensive metabolism during and/or prior to gastro intestinal absorption", "value": "no unchanged drug is detected"},
      {"measurement": "Time of peak plasma levels", "setting": "[1]", "value": "less than fifteen"},
      {"measurement": "Number with blood loss >= 500 ml", "setting": "[2]; 600 μg Misoprostol orally immediately after delivery, n = 237", "value": 13},
      {"measurement": "Cases of infection", "setting": "[2]; 600 μg oral", "value": "no cases"},
      {"measurement": "Incidence of shivering: patients who had epidural anaesthesia vs those who had not", "setting": "[2]; 600 μg oral", "value": "no significant difference"},
      {"measurement": "Incidence of vomiting relative to that reported when syntometrine is used", "setting": "[2]; 600 μg oral", "value": "almost half"},
      {"measurement": "% with blood loss > 1000 ml", "setting": "[2]; 600 μg oral, n = 237", "value": "(0%)"},
      {"measurement": "% with blood loss greater than 500", "setting": "[2]; 600 μg oral, n = 237", "value": 3, "unit": "%"},
      {"measurement": "% with diastolic - 100 (mm Hg)", "setting": "[2]; 600 μg oral, n = 237", "value": "(0%)"},
      {"measurement": "% with haemoglobin < 9 (g/l)", "setting": "[2]; 600 μg oral, n = 237", "value": "(2%)"},
      {"measurement": "% with systolic - 150 (mm Hg)", "setting": "[2]; 600 μg oral, n = 237", "value": "(1%)"},
      {"measurement": "% with third stage length >= 30 minutes", "setting": "[2]; 600 μg oral, n = 237", "value": "(0.5%)"},
      {"measurement": "Median (IQR) of blood loss", "setting": "[2]; 600 μg oral, n = 237", "value": 200, "unit": "mL"},
      {"measurement": "Median (IQR) third stage length", "setting": "[2]; 600 μg oral, n = 237", "value": 5, "unit": "min"},
      {"measurement": "Number who had shivering", "setting": "[2]; 600 μg oral, n = 237", "value": 148},
      {"measurement": "Number with blood loss > 1000 ml", "setting": "[2]; 600 μg oral, n = 237", "value": 0},
      {"measurement": "Number with blood loss greater than 500", "setting": "[2]; 600 μg oral, n = 237", "value": 6},
      {"measurement": "Number with diastolic - 100 (mm Hg)", "setting": "[2]; 600 μg oral, n = 237", "value": 0},
      {"measurement": "Number with haemoglobin < 9 (g/l)", "setting": "[2]; 600 μg oral, n = 237", "value": 4},
      {"measurement": "Number with manual removal of placenta", "setting": "[2]; 600 μg oral, n = 237", "value": 4},
      {"measurement": "Number with repeat syntometrine injection", "setting": "[2]; 600 μg oral, n = 237", "value": 12},
      {"measurement": "Number with systolic - 150 (mm Hg)", "setting": "[2]; 600 μg oral, n = 237", "value": 2},
      {"measurement": "Number with third stage length >= 30 minutes", "setting": "[2]; 600 μg oral, n = 237", "value": 1},
      {"measurement": "Patients for whom blood transfusion was required", "setting": "[2]; 600 μg oral, n = 237", "value": 2, "unit": "patients"},
      {"measurement": "Number who had diarrhoea (loose stool)", "setting": "[2]; 600 μg oral, n = 237, first 24 hours after delivery", "value": 7},
      {"measurement": "Number who vomited", "setting": "[2]; 600 μg oral, n = 237, first hour after delivery", "value": 19},
      {"measurement": "Duration of shivering", "setting": "[2]; 600 μg oral, self-limiting, twenty minutes after swallowing the tablets", "value": "10 to 15", "unit": "min"},
      {"measurement": "Temperature, mean", "setting": "[2]; after delivery (one hour), 600 μg oral, n = 182", "value": 37.1, "unit": "C."},
      {"measurement": "Diastolic blood pressure, mean", "setting": "[2]; [7]", "value": 73.0, "unit": "mm Hg"},
      {"measurement": "Systolic blood pressure, mean", "setting": "[2]; [7]", "value": 118.4, "unit": "mm Hg"},
      {"measurement": "Haematocrit, mean", "setting": "[2]; after delivery, 600 μg oral, n = 73", "value": 0.33},
      {"measurement": "Haematocrit, mean difference", "setting": "[2]; after minus before delivery, n = 73", "value": "−0.01"},
      {"measurement": "Temperature, mean difference (increase)", "setting": "[2]; after minus before delivery, n = 182", "value": 0.5, "unit": "C."},
      {"measurement": "Diastolic blood pressure, mean difference", "setting": "[2]; [8]", "value": "−0.8", "unit": "mm Hg"},
      {"measurement": "Systolic blood pressure, mean difference", "setting": "[2]; [8]", "value": "−1.0", "unit": "mm Hg"},
      {"measurement": "Diastolic blood pressure, mean", "setting": "[2]; [9]", "value": 73.8, "unit": "mm Hg"},
      {"measurement": "Systolic blood pressure, mean", "setting": "[2]; [9]", "value": 119.3, "unit": "mm Hg"},
      {"measurement": "Haematocrit, mean", "setting": "[2]; before delivery, n = 73", "value": 0.34},
      {"measurement": "Temperature, mean", "setting": "[2]; before delivery, n = 182", "value": 36.6, "unit": "C."},
      {"measurement": "Mean reduction of diastolic blood pressure (SE)", "setting": "[2]; [10]", "value": "0.8 (0.6) mm Hg"},
      {"measurement": "Mean reduction of systolic blood pressure (SE)", "setting": "[2]; [10]", "value": "1.0 (SE=0.9) mm Hg"},
      {"measurement": "Hypertensive effects", "setting": "[2]; women who were normotensive before labour, 600 μg oral", "value": "could not identify any hypertensive effects"},
      {"measurement": "Hypertensive effect", "setting": "blood pressure [3]", "value": "not hypertensive"},
      {"measurement": "Effect on blood pressure", "setting": "blood pressure [4]", "value": "substantially normotensive"},
      {"measurement": "Effect on blood pressure", "setting": "blood pressure [5]", "value": "mild hypotensive effect"}
    ]},
    {"smiles": "CC[C@H](C)[C@@H]1NC(=O)[C@H](Cc2ccc(O)cc2)NC(=O)[C@@H](N)CSSC[C@@H](C(=O)N2CCC[C@H]2C(=O)N[C@@H](CC(C)C)C(=O)NCC(N)=O)NC(=O)[C@H](CC(N)=O)NC(=O)[C@H](CCC(N)=O)NC1=O", "note": "[syntocinon]", "values": [
      {"measurement": "Time to action", "setting": "[6]", "value": "about 2.5 minutes"}
    ]}
  ]
}
